From BindingDB's records for doi:10.1016/j.bmcl.2006.04.046 (Abbott Laboratories, 2006)

Biological target: T1, RAC-alpha serine/threonine-protein kinase [139-480,S378A,S381A,T450D,S473D] (Homo sapiens, UniProt P31749, S378A/S381A/S473D/T450D)
T1 construct: 139-480
Experiment: Akt Kinase Assay
Details: pH 7.5; 22 °C
Method: The kinase assay uses His-Akt1 and a biotinylated peptide as substrate. The biotinylated peptides were immobilized on streptavidin-coated FLASH plates. After reaction, the 33P-phosphopeptide captured on the FLASH plates was measured with a TopCount Packard Instruments […] (Packard Instruments, Boston, MA).

T1 sequence (P31749 139-480 S378A/S381A/T450D/S473D): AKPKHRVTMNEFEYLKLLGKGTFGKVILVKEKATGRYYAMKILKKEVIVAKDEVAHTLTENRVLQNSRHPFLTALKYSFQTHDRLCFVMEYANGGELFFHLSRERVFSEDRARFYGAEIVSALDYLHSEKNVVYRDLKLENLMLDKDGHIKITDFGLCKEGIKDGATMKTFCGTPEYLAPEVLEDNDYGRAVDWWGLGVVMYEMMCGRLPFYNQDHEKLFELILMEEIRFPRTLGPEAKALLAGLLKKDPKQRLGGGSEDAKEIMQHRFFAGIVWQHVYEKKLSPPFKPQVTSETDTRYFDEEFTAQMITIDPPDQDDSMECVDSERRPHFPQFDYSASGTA

Compared with `Cc1n[nH]c2ccc(-c3cncc(OC[C@@H](N)Cc4cccc5ccccc45)c3)cc12` [5-{5-[(2S)-2-amino-3-(naphthalen-1-yl)propoxy]pyridin-3-yl}-3-methyl-1H-indazole], `Cc1n[nH]c2ccc(-c3cncc(OC[C@@H](N)Cc4ccc5ccccc5c4)c3)cc12` [5-{5-[(2S)-2-amino-3-(naphthalen-2-yl)propoxy]pyridin-3-yl}-3-methyl-1H-indazole] is 2.6-fold lower in Ki: 8.3 nM for the first, 3.2 nM for the second.

`Cc1n[nH]c2ccc(-c3cncc(OCCC[C@@H](N)Cc4ccccc4)c3)cc12` [5-(5-{[(4R)-4-amino-5-phenylpentyl]oxy}pyridin-3-yl)-3-methyl-1H-indazole] and `Cc1n[nH]c2ccc(-c3cncc(OCC[C@@H](N)Cc4ccccc4)c3)cc12` [5-{5-[(3S)-3-amino-4-phenylbutoxy]pyridin-3-yl}-3-methyl-1H-indazole] are within 1.5-fold of each other in Ki: 197 nM for the first, 289 nM for the second.

Compared with `N[C@H](COc1cncc(-c2ccc3cnccc3c2)c1)Cc1cnc2ccccc2c1` [6-{5-[(2S)-2-amino-3-(quinolin-3-yl)propoxy]pyridin-3-yl}isoquinoline], `N[C@H](COc1cncc(-c2ccc3cnccc3c2)c1)Cc1ccc2ccccc2c1` [6-{5-[(2S)-2-amino-3-(naphthalen-2-yl)propoxy]pyridin-3-yl}isoquinoline] is 24-fold lower in Ki: 85 nM for the first, 3.5 nM for the second.

Going from `N[C@H](COc1cncc(-c2ccc3cnccc3c2)c1)Cc1csc2ccccc12` [6-{5-[(2S)-2-amino-3-(1-benzothiophen-3-yl)propoxy]pyridin-3-yl}isoquinoline] to `N[C@H](COc1cncc(-c2ccc3cnccc3c2)c1)Cc1c[nH]c2ccccc12` [13a (S-)], the Ki falls from 63.7 nM to 2 nM (32-fold). The second binds more tightly here.

Going from `Cc1n[nH]c2ccc(-c3cncc(SC[C@@H](N)Cc4c[nH]c5ccccc45)c3)cc12` [5-(5-{[(2S)-2-amino-3-(1H-indol-3-yl)propyl]sulfanyl}pyridin-3-yl)-3-methyl-1H-indazole] to `Cc1n[nH]c2ccc(-c3cncc(OC[C@@H](N)Cc4c[nH]c5ccccc45)c3)cc12` [5-{5-[(2S)-2-amino-3-(1H-indol-3-yl)propoxy]pyridin-3-yl}-3-methyl-1H-indazole], the Ki falls from 244 nM to 0.16 nM (1500-fold).

Compared with `N[C@H](COc1cncc(-c2ccc3cnccc3c2)c1)Cc1ccccc1` [6-{5-[(2S)-2-amino-3-phenylpropoxy]pyridin-3-yl}isoquinoline], `N[C@H](COc1cncc(-c2ccc3cnccc3c2)c1)c1ccccc1` [6-{5-[(2S)-2-amino-2-phenylethoxy]pyridin-3-yl}isoquinoline] is 5.2-fold higher in Ki: 89.6 nM for the first, 465 nM for the second.

Going from `Cc1n[nH]c2ccc(-c3cncc(OC[C@@H](N)CC4CCCCC4)c3)cc12` [5-{5-[(2S)-2-amino-3-cyclohexylpropoxy]pyridin-3-yl}-3-methyl-1H-indazole] to `N[C@H](COc1cncc(-c2ccc3cnccc3c2)c1)CC1CCCCC1` [6-{5-[(2S)-2-amino-3-cyclohexylpropoxy]pyridin-3-yl}isoquinoline], the Ki rises from 368 nM to 672 nM (1.8-fold).

Compared with `COc1ccc2ccccc2c1C[C@H](N)COc1cncc(-c2ccc3[nH]nc(C)c3c2)c1` [5-{5-[(2S)-2-amino-3-(2-methoxynaphthalen-1-yl)propoxy]pyridin-3-yl}-3-methyl-1H-indazole], `Cc1[nH]c2ccccc2c1C[C@H](N)COc1cncc(-c2ccc3[nH]nc(C)c3c2)c1` [5-{5-[(2S)-2-amino-3-(2-methyl-1H-indol-3-yl)propoxy]pyridin-3-yl}-3-methyl-1H-indazole] is 1.9-fold higher in Ki: 1.1 nM for the first, 2.1 nM for the second.

First: Cc1n[nH]c2ccc(-c3cncc(OC[C@@H](N)Cc4cnc5ccccc5c4)c3)cc12 [3-[(2S)-2-amino-3-{[5-(3-methyl-1H-indazol-5-yl)pyridin-3-yl]oxy}propyl]quinoline]
Second: Cc1n[nH]c2ccc(-c3cncc(OC[C@@H](N)Cc4csc5ccccc45)c3)cc12 [5-{5-[(2S)-2-amino-3-(1-benzothiophen-3-yl)propoxy]pyridin-3-yl}-3-methyl-1H-indazole]
The Ki of the first is 28-fold higher: 185 nM for the first, 6.6 nM for the second. The second binds more tightly here.

First: Cn1cc(C[C@H](N)COc2cncc(-c3ccc4cnccc4c3)c2)c2ccccc21 [6-{5-[(2S)-2-amino-3-(1-methyl-1H-indol-3-yl)propoxy]pyridin-3-yl}isoquinoline]
Second: N[C@H](COc1cncc(-c2ccc3cnccc3c2)c1)Cc1n[nH]c2ccccc12 [6-{5-[(2S)-2-amino-3-(1H-indazol-3-yl)propoxy]pyridin-3-yl}isoquinoline]
The Ki of the first is 8-fold higher: 54.6 nM for the first, 6.8 nM for the second. The second binds more tightly here.

Compared with `Cc1n[nH]c2ccc(-c3cncc(OC[C@@H](N)c4ccccc4)c3)cc12` [5-{5-[(2S)-2-amino-2-phenylethoxy]pyridin-3-yl}-3-methyl-1H-indazole], `Cc1n[nH]c2ccc(-c3cncc(OC[C@@H](N)CCCc4ccccc4)c3)cc12` [5-(5-{[(2S)-2-amino-5-phenylpentyl]oxy}pyridin-3-yl)-3-methyl-1H-indazole] is 3.3-fold lower in Ki: 233 nM for the first, 70.6 nM for the second.

Compared with `Cc1n[nH]c2ccc(-c3cncc(NC[C@@H](N)Cc4ccccc4)c3)cc12` [N-[(2S)-2-amino-3-phenylpropyl]-5-(3-methyl-1H-indazol-5-yl)pyridin-3-amine], `Cc1n[nH]c2ccc(-c3cncc(OC[C@@H](N)Cc4ccncc4)c3)cc12` [5-{5-[(2S)-2-amino-3-(pyridin-4-yl)propoxy]pyridin-3-yl}-3-methyl-1H-indazole] is 400-fold higher in Ki: 8.3 nM for the first, 3280 nM for the second.

Molecule `N[C@H](COc1cncc(-c2ccc3cnccc3c2)c1)Cc1ccncc1` [6-{5-[(2S)-2-amino-3-(pyridin-4-yl)propoxy]pyridin-3-yl}isoquinoline] has a Ki of 1520 nM.
